Assay results published in US10822346B2, “Meglumine salts of thienopyrimidines” (Cardurion Pharmaceuticals, LLC, priority 2018, dated 2020).

Legend:
[1] = Solid form stability on drying under vacuum; assay type: physicochemical; conditions: crystalline salts; crystal form after drying
From the text: (§1) Initial studies identified thienopyrimidine carboxylic acids as PDE9 inhibitors which could be used to treat or prevent HF. […] In further studies, the potassium salt was identified as a candidate for formulation because it was soluble, provided high exposure in preclinical toxicology studies, and was relatively easy to scale up. […] Unexpectedly the monohydrate crystalline meglumine salt of the thienopyrimidine compounds afforded the desired properties for a pharmaceutical formulation, as shown in Table 5.

[2] = Hygroscopicity by Dynamic Vapor Sorption; assay type: physicochemical; conditions: for Hygroscopicity: DVS weight gain: Dynamic Vapor Sorption @ 25° C./95% RH
From the text: as §1

[3] = Dog pharmacokinetic study; assay type: in vivo, dogs; conditions: for AUClast / Cmax / Tmax: healthy dogs, N = 4 animals/arm, fasted overnight, pentagastrin 30 min prior to dosing, mean plasma profile
Procedure: Healthy dogs were used to study different salt candidates to evaluate the pharmacokinetic profile of each candidate. Six treatment arms were employed:
Animals were fasted overnight with free access to water. Pentagastrin (PG) (6 μg/kg, IM) was administered 30 min prior to dosing. Food was resumed 4 h post dose.

[4] = Solubility in pharmaceutically acceptable formulation; assay type: physicochemical; conditions: in any pharmaceutically acceptable formulation
From the text: as §1

[5] = Exposure in preclinical toxicology studies; conditions: in vivo
From the text: as §1

[K+] [Potassium]
Stability: Drying under vaccum @50 for 36 hrs [1]: changes
Hygroscopicity: DVS weight gain [2]: 8-22.5%
AUClast [3]: 966 ng·h/mL
Cmax [3]: 398 ng/mL
Tmax [3]: 1.25 h
Solubility (in words) [4]: soluble
Exposure in preclinical toxicology studies (in words) [5]: high exposure

CNCC(O)C(O)C(O)C(O)CO.Cc1c(C(=O)O)sc2nc(Cc3ccc(Cl)c(Cl)c3)[nH]c(=O)c12.O [compound 4, meglumine 2-(3,4-dichlorobenzyl)-5-methyl-4-oxo-3,4-dihydrothieno[2,3-d]pyrimidine-6-carboxylate monohydrate]
Stability: Drying under vaccum @50 for 36 hrs [1]: unchanged
Hygroscopicity (in words) [2]: low hygroscopicity
Hygroscopicity: DVS weight gain [2]: 0.7%
Pharmacokinetic profile (in words) ([3]; dogs, compared with other salts): superior pharmacokinetic profile
Exposure compared with free acid and potassium salt dosed as solutions (in words) ([3]; dogs, powder in a capsule (PIC)): comparable exposure
AUClast [3]: 1008 ng·h/mL
Cmax [3]: 280 ng/mL
Tmax [3]: 1.13 h

Cc1c(C(=O)O)sc2nc(Cc3ccc(Cl)c(Cl)c3)[nH]c(=O)c12.NCCCC[C@H](N)C(=O)O [compound 9, lysine 2-(3,4-dichlorobenzyl)-5-methyl-4-oxo-3,4-dihydrothieno[2,3-d]pyrimidine-6-carboxylate]
Stability: Drying under vaccum @50 for 36 hrs [1]: changes
Hygroscopicity: DVS weight gain [2]: 6.4%
AUClast [3]: 495 ng·h/mL
Cmax [3]: 78.4 ng/mL
Tmax [3]: 3.50 h

Cc1c(C(=O)O)sc2nc(Cc3ccc(Cl)c(Cl)c3)[nH]c(=O)c12.N=C(N)NCCC[C@H](N)C(=O)O [compound 8, arginine 2-(3,4-dichlorobenzyl)-5-methyl-4-oxo-3,4-dihydrothieno[2,3-d]pyrimidine-6-carboxylate]
Stability: Drying under vaccum @50 for 36 hrs [1]: changes
Hygroscopicity: DVS weight gain [2]: 5.9%
AUClast [3]: 705 ng·h/mL
Cmax [3]: 246 ng/mL
Tmax [3]: 1.38 h
